Experiments:
[1] = tested on: RKIP mRNA expression; assay: RKIP mRNA expression in RWPE cells by real-time RT-PCR; type: cell-based, human
[2] = tested on: human RKIP promoter; conditions: RWPE cells, DHT 5 nM, 10 nM, 24 h, compared to basal activity
[3] = tested on: putative RKIP ARE; conditions: RWPE nuclear extracts, 5 nM DHT, as early as 30 min
Description: The reaction was allowed to proceed for 30 min at room temperature.

[4] = tested on: C4-2B cells; assay: In vitro invasion assay with protein kinase inhibitors; type: cell-based, human; conditions: in vitro invasion through matrix, C4-2B cells (FIG. 4)
Description: The invasiveness of control and sense or antisense-transfected cell clones was evaluated in 24-well transwell chambers (Costar, Cambridge, Mass.) as directed by the manufacturer. Briefly, the upper and lower culture compartments were separated by polycarbonate filters with 8-μm pore size. Some wells were coated with 100 μg/cm^2 collagen matrix (MATRIGEL, Collaborative Biomedical Products, Bedford, Mass.) that was reconstituted by adding 0.5 ml of serum-free T medium for 2 hours. […] Cell penetration through the membrane was quantified by staining the porous membrane with a Diff-Quik stain kit. The numbers of cells that penetrated through the membrane were counted in five microscopic fields (×200) per filter. Invasive ability was then determined as the proportion of cells that invaded through the matrix-coated membrane relative to the number of cells that migrated through the uncoated membrane (baseline migration). […]
Furthermore, because RKIP inhibits tumor invasiveness, it was investigated whether RKIP exerts its metastasis suppressor gene function through regulation of MEK activation. […] Accordingly, the effect of a variety of kinase inhibitors was evaluated, including a MEK inhibitor (PD098059) on in vitro invasion. […]

[5] = tested on: RKIP mRNA levels; assay: RKIP mRNA levels in LNCaP cells by real time PCR; type: cell-based, human; conditions: IL-6 50 ng/ml, 6 or 24 hours (FIG. 7)
Description: LNCaP cells were plated in culture dishes and treated with IL-6 (50 ng/ml) or vehicle for 6 or 24 hours. Total RNA was collected and subjected to real time PCR for RKIP mRNA levels. RKIP mRNA levels were normalized to β-galactosidase mRNA levels.

`C[C@@H]1C[C@@H]([C@H](O)CC2CC(=O)NC(=O)C2)C(=O)[C@@H](C)C1` [CHX, cycloheximide] was tested, and the “expression of RKIP, treatment alone” value ([1]; RWPE cells, 24 h, CHX alone (FIG. 12C)) was “did not change the expression of RKIP”.

In the case of `CC(O)(CS(=O)(=O)c1ccc(F)cc1)C(=O)Nc1ccc(C#N)c(C(F)(F)F)c1` (stereo not drawn) [Casodex], the “effect on DHT induction of RKIP mRNA expression” value ([1]; RWPE cells, 24 h, casodex in the presence of DHT (FIG. 12B)) is reported as “substantially reduced”.

For `C[C@]12CCC(=O)C[C@@H]1CC[C@@H]1[C@@H]2CC[C@]2(C)[C@@H](O)CC[C@@H]12` [DHT, dihydrotestosterone], the “increase in luciferase activity of RKIP promoter plasmid” value [2] was “approximately 3 fold”, the “DNA binding activity to RKIP ARE probe” value [3] was “rapid increase in DNA binding activity” and the “RKIP expression in cells treated with CHX” value [1] was “increase in RKIP expression”. The “increase in RKIP mRNA at 1 nM” value [1] was “significant (P<0.01) increase”, the “induction of RKIP expression at 0.1 nM” value [1] was “almost no induction” and the “maximum induction of RKIP mRNA expression” value [1] was 1.5 fold. For the same compound, the “induction of RKIP expression at saturating amounts (>=5 nM)” value ([1]; RWPE cells, 24 h, >=5 nM DHT) was “significant (P<0.01) induction” and the “RKIP mRNA expression versus DHT concentration” value ([1]; RWPE cells, 24 h, various concentrations of DHT) was “dose-dependent increase”.

For `COc1cccc(-c2cc(=O)c3ccccc3o2)c1N` [PD098059], the “decrease of invasive ability of C4-2B cells” value [4] was 41%.

In the case of IL-6: the cytokine interleukin-6, the “RKIP expression in LNCaP prostate cancer cells” value [5] is reported as “reduces RKIP expression”.
